IC50 and inhibition data for ten compounds are collected here from ChEMBL document CHEMBL1141247, “Hydroxyalkenylresorcinols from Stylogyne turbacensis” (J Nat Prod, 2007).

As usually defined, the IC50 is the concentration at which inhibition is half-maximal. A low value points to inhibition by little substance. The inhibition is the share of the control response that was lost under treatment. A low value points to a response near the control.

The subject of assay [1] is NCI-H460. In words: Cytotoxicity against human NCI-H460. It counts as functional, cell-based.
Another assay concerns Vero. In words: Cytotoxicity against […] Vero cells by MTT assay. It counts as cell-based, Homo sapiens. Conditions: Chlorocebus sabaeus. (In general: Tetrazolium dyes change colour on reduction, which living cells bring about.)
For another assay, the system named is Leishmania donovani. In words: Antileishmanial activity against Leishmania donovani. In kind it is functional, organism-based.
For another assay, the system named is Trypanosoma cruzi. In words: Antitrypanosomal activity against Trypanosoma cruzi. It counts as functional, organism-based.
The test system of a further assay is MCF7. In words: Cytotoxicity against human MCF7 cells. It counts as functional, cell-based.
Assay [2] concerns NCI-H460. Briefly: Cytotoxicity against human NCI-H460 at 20 ug/ml. In kind it is functional.

As to `CCCCC/C=C\C/C=C\CCCCCCCc1cc(O)cc(O)c1`, the half-inhibitory concentration (IC50) in the assay on NCI-H460 [1] was 8.7 µM; with Vero it was 148 µM; with Leishmania donovani, 0.6 µM; with Trypanosoma cruzi, 30 µM; with MCF7, 8.7 µM.

Take `CCCCCC[C@H](O)C/C=C\CCCCCCCc1cc(O)cc(O)c1`: the IC50 with NCI-H460 [1] came out at 16 µM; in the assay on Vero, 76 µM; in the assay with Leishmania donovani it was 7 µM; in the assay with Trypanosoma cruzi it was 138 µM; with MCF7, 14 µM.

As for `CC/C=C\C[C@@H](O)CC/C=C\CCCCCCCc1cc(O)cc(O)c1`, the IC50 in the assay with NCI-H460 [1] was > 10 µM; in the assay on Vero, 30 µM; in the assay on Leishmania donovani it was 3 µM; with Trypanosoma cruzi, 22 µM; in the assay with MCF7 it was 22 µM. In addition, the inhibition at 20 µg/mL in the assay on NCI-H460 [2] was < 50%.

On to `CCCCC/C=C\C/C=C\CCCCCCCc1cc(OC(C)=O)cc(OC(C)=O)c1`, for which the IC50 with Vero stood at 124 µM; in the assay with Trypanosoma cruzi, 117 µM.

With `CC/C=C\C/C=C\C/C=C\CCCCCCCc1cc(OC(C)=O)cc(OC(C)=O)c1`, the concentration for half-maximal inhibition (IC50) in the assay on Vero was 138 µM; in the assay on Trypanosoma cruzi, 117 µM.

In the case of `CCCCCC[C@@H](C/C=C\CCCCCCCc1cc(OC(C)=O)cc(OC(C)=O)c1)OC(C)=O`, the IC50 in the assay on Vero is 75 µM; with Trypanosoma cruzi, 102 µM.

Take `CC/C=C\C[C@H](CC/C=C\CCCCCCCc1cc(OC(C)=O)cc(OC(C)=O)c1)OC(C)=O`: the IC50 turned out to be 82 µM with Vero and 107 µM with Trypanosoma cruzi.

For the compound `CC/C=C\C/C=C\C/C=C\CCCCCCCc1cc(O)cc(O)c1`, the half-inhibitory concentration (IC50) was 8.7 µM in the assay on NCI-H460 [1]; 104 µM in the assay with Vero; 0.6 µM with Leishmania donovani; 25 µM in the assay on Trypanosoma cruzi; 8.7 µM in the assay with MCF7.

`C[C@@H]1[C@H](O)[C@@H](C)/C=C/C=C/C=C/C=C/C=C/C=C/C=C/[C@H](O[C@@H]2O[C@H](C)[C@@H](O)[C@H](N)[C@@H]2O)C[C@@H]2O[C@](O)(C[C@@H](O)C[C@@H](O)[C@H](O)CC[C@@H](O)C[C@@H](O)CC(=O)O[C@H]1C)C[C@H](O)[C@H]2C(=O)O` [AMPHOTERICIN B]: in the assay with Leishmania donovani, the concentration for half-maximal inhibition (IC50) worked out at 0.09 µM. That is a double-digit nanomolar value.

In the assay with Trypanosoma cruzi, `CC1CS(=O)(=O)CCN1/N=C/c1ccc([N+](=O)[O-])o1` (stereo unspecified) [NIFURTIMOX] yielded an IC50 of 6 µM.
